In ChEMBL document CHEMBL5729705, “Amide compounds for treatment of immune and inflammatory disorders” (2023):

Biological target: Complement factor D (Homo sapiens, UniProt P00746)
Assay: Human Factor D Assay: Human Factor D (purified from human serum, Complement Technology, Inc.) at 80 nM final concentration is incubated with test compound at various concentrations for 5 minutes at room temperature in 50 mM Tris, 1M NaCl, pH 7.5. A synthetic substrate Z-L-Lys-SBzl and DTNB (Ellman's reagent) are added to final concentrations of 100 μM each. Absorbance at 405 nm (A405) is recorded at 30 second intervals for 30 minutes using a microplate spectrophotometer. IC50values are calculated by nonlinear regression of complement Factor D reaction rates as a function of test compound concentration.

Sequence of Complement factor D (P00746 whole entry): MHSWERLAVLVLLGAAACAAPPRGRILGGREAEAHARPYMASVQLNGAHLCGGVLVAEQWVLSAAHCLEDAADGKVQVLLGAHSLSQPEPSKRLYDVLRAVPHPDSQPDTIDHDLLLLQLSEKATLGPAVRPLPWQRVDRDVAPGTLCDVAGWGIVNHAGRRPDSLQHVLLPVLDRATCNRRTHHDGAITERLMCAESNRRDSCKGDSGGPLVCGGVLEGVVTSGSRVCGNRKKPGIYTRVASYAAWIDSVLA

With Cc1cccc(CC(O)[C@@H]2C[C@@H](F)CN2C(=O)Cn2cc(C(N)=O)c3cc(C(=O)NS(=O)(=O)C4CC4)ccc32)n1 (some centres not stated) the IC50 was > 10 µM.

For Cc1cccc(CC(O)[C@H]2C[C@@H](F)CN2C(=O)Cn2cc(C(N)=O)c3cc(C(=O)NS(=O)(=O)C4CC4)ccc32)n1 (some centres not stated), the IC50 was > 10 µM.
